Source: paper PMC12528448, “Resistance to CDK7 inhibitors directed by acquired mutation of a conserved residue in cancer cells” (The EMBO Journal, 2025)
Values joined by “and” are separate entries in the source; they are usually repeats but may differ in a detail not shown here. Identical values can stand only once.

Assays:
Type in all cases: cell-based, human
[1] = test system: 22Rv1-SamR cells; assay: Growth assay (SRB), Samuraciclib-resistant 22Rv1; details: for % Growth: 22Rv1 SamR, 4 days, biological reps
Experimental: (§1) To determine the IC50 of drug treatments on growth, cells were seeded in 96-well culture plates. Two days after seeding, the cells were treated with increasing concentrations of drugs and incubated for 4 days. Cell number was determined using the SRB assay (Skehan et al, [1990]), and IC50 values were calculated using non-linear regression curve fitting in GraphPad Prism v10. For all other growth experiments, cells were seeded into 96-well plates, and appropriate drugs were added 2 days after seeding. Cells were then incubated in an IncuCyte Zoom live-cell imager, with cell confluency measured every 6 h. Cell doubling times were determined by non-linear curve fitting (exponential growth equation) in GraphPad Prism v10.

[2] = test system: MCF7 cells; assay: Growth assay (SRB), MCF7; details: for % Growth: biological reps
Outline: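 SRB: dosing at day 2 post-seed, rising concentrations, 4 d incubation, IC50 via non-linear fit. IncuCyte: drug at day 2, confluency read q6h, doubling time from exponential curve fit.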

[3] = test system: 22Rv1 cells; assay: IncuCyte confluency growth, 22Rv1
Experimental: as §1

[4] = test system: 22Rv1-SamR cells; assay: IncuCyte confluency growth, 22Rv1-SamR; details: for % Confluency: 80nM SY1365, 22Rv1-SamR
Experimental: as §1

[5] = test system: 22Rv1 homozygous CDK7-D97N CL3 cells; assay: IncuCyte confluency growth, 22Rv1 homozygous CDK7-D97N CL3
Experimental: as §1

`CN(C)C/C=C/C(=O)Nc1ccc(C(=O)N[C@@]2(C)CCC[C@@H](Nc3ncc(Cl)c(-c4c[nH]c5ccccc45)n3)C2)nc1` [SY-1365] was tested, and the “Sensitivity in growth assays” value ([1]; 22Rv1-SamR) was “remained sensitive”, the “Resistance (Fold), fold increase in IC50 of 22Rv1-SamR relative to 22Rv1” value ([1]; 22Rv1-SamR vs 22Rv1) was 1.0 fold and the “% Growth” value ([1]; Log10 Conc. (nM) 0.09) was 50.67% and 45.27%. The “% Growth” value ([1]; Log10 Conc. (nM) 0.69) was 34.60% and 27.89%, the “% Growth” value ([1]; Log10 Conc. (nM) 1.29) was 26.06% and 19.62% and the “% Growth” value ([1]; Log10 Conc. (nM) 1.89) was -2.71% and -9.74%. For the same compound, the “% Growth” value ([1]; Log10 Conc. (nM) 2.49) was -0.26% and -8.99%, the “% Growth” value ([1]; Log10 Conc. (nM) -0.52) was 81.58% and 73.70% and the “% Growth” value ([1]; Log10 Conc. (nM) -1.12) was 90.71% and 90.62%. For the same compound, the IC50 ([2]; 4 days, SRB) was 0.89 nM, the “% Growth” value ([2]; Log10 Conc. (nM) 3.70, 4 days) was -12.18% and the “% Growth” value ([2]; Log10 Conc. (nM) -0.52, 4 days) was 88.75% and 65.89% and 87.60% and 88.37%. For the same compound, the “% Growth” value ([2]; Log10 Conc. (nM) -1.12, 4 days) was 97.02% and 94.10% and 95.64% and 94.95%, the “% Growth” value ([2]; Log10 Conc. (nM) -1.72, 4 days) was 90.31% and 94.08% and 94.26% and the “% Confluency” value ([3]; 80nM SY1365, 22Rv1, 0 hours) was 11.42% and 19.49% and 18.80%. The “% Confluency” value ([3]; 80nM SY1365, 22Rv1, 6 hours) was 11.80% and 20.40% and 19.49%, the “% Confluency” value ([3]; 80nM SY1365, 22Rv1, 12 hours) was 10.21% and 17.43% and 16.82% and the “% Confluency” value ([3]; 80nM SY1365, 22Rv1, 18 hours) was 9.13% and 15.66% and 15.15%. The “% Confluency” value ([3]; 80nM SY1365, 22Rv1, 24 hours) was 8.54% and 14.77% and 14.37%, the “% Confluency” value ([3]; 80nM SY1365, 22Rv1, 30 hours) was 8.21% and 14.28% and 13.85% and the “% Confluency” value ([3]; 80nM SY1365, 22Rv1, 36 hours) was 8.00% and 13.79% and 13.42%. For the same compound, the “% Confluency” value ([3]; 80nM SY1365, 22Rv1, 42 hours) was 7.74% and 13.41% and 13.03%, the “% Confluency” value ([3]; 80nM SY1365, 22Rv1, 48 hours) was 7.60% and 13.19% and 12.71% and the “% Confluency” value ([3]; 80nM SY1365, 22Rv1, 54 hours) was 7.42% and 12.81% and 12.32%. For the same compound, the “% Confluency” value ([3]; 80nM SY1365, 22Rv1, 60 hours) was 7.30% and 12.50% and 12.14%, the “% Confluency” value ([3]; 80nM SY1365, 22Rv1, 66 hours) was 7.19% and 12.29% and 11.85% and the “% Confluency” value ([3]; 80nM SY1365, 22Rv1, 72 hours) was 7.07% and 12.06% and 11.63%. For the same compound, the “% Confluency” value ([3]; 80nM SY1365, 22Rv1, 78 hours) was 6.98% and 11.84% and 11.40%, the “% Confluency” value ([3]; 80nM SY1365, 22Rv1, 84 hours) was 6.88% and 11.65% and 11.26% and the “% Confluency” value ([3]; 80nM SY1365, 22Rv1, 90 hours) was 6.85% and 11.59% and 11.21%. For the same compound, the “% Confluency” value ([3]; 80nM SY1365, 22Rv1, 96 hours) was 6.73% and 11.35% and 10.98%, the “% Confluency” value ([3]; 80nM SY1365, 22Rv1, 114 hours) was 6.60% and 11.05% and 10.79% and the “% Confluency” value ([3]; 80nM SY1365, 22Rv1, 120 hours) was 6.58% and 10.92% and 10.70%. The “% Confluency” value ([3]; 80nM SY1365, 22Rv1, 126 hours) was 6.55% and 10.80% and 10.69%, the “% Confluency” value ([3]; 80nM SY1365, 22Rv1, 132 hours) was 6.55% and 10.73% and 10.58% and the “% Confluency” value ([3]; 80nM SY1365, 22Rv1, 138 hours) was 6.46% and 10.70% and 10.57%. The “% Confluency” value ([3]; 80nM SY1365, 22Rv1, 144 hours) was 6.45% and 10.59% and 10.48%, the “Growth inhibition over time” value ([3]; 22Rv1, IncuCyte confluency) was “potently growth inhibited” and the “% Confluency” value ([4]; 0 hours) was 10.34% and 15.03% and 14.87%. The “% Confluency” value ([4]; 6 hours) was 9.52% and 13.73% and 13.78%, the “% Confluency” value ([4]; 12 hours) was 7.18% and 10.14% and 10.08% and the “% Confluency” value ([4]; 18 hours) was 6.46% and 9.11% and 8.97%. The “% Confluency” value ([4]; 24 hours) was 6.42% and 8.94% and 8.84%, the “% Confluency” value ([4]; 30 hours) was 6.40% and 8.87% and 8.89% and the “% Confluency” value ([4]; 36 hours) was 6.41% and 8.74% and 8.80%. The “% Confluency” value ([4]; 42 hours) was 6.26% and 8.57% and 8.60%, the “% Confluency” value ([4]; 48 hours) was 6.09% and 8.40% and 8.37% and the “% Confluency” value ([4]; 54 hours) was 5.90% and 8.18% and 8.12%. For the same compound, the “% Confluency” value ([4]; 60 hours) was 5.76% and 7.96% and 7.93%, the “% Confluency” value ([4]; 66 hours) was 5.65% and 7.83% and 7.79% and the “% Confluency” value ([4]; 72 hours) was 5.56% and 7.64% and 7.59%. For the same compound, the “% Confluency” value ([4]; 78 hours) was 5.44% and 7.53%, the “% Confluency” value ([4]; 84 hours) was 5.34% and 7.42% and 7.40% and the “% Confluency” value ([4]; 90 hours) was 5.24% and 7.29% and 7.32%. The “% Confluency” value ([4]; 96 hours) was 5.21% and 7.20% and 7.25%, the “% Confluency” value ([4]; 114 hours) was 5.05% and 7.01% and 7.04% and the “% Confluency” value ([4]; 120 hours) was 5.01% and 6.93% and 6.98%. For the same compound, the “% Confluency” value ([4]; 126 hours) was 4.98% and 6.86% and 6.94%, the “% Confluency” value ([4]; 132 hours) was 4.95% and 6.82% and 6.86% and the “% Confluency” value ([4]; 138 hours) was 4.94% and 6.80% and 6.88%. For the same compound, the “% Confluency” value ([4]; 144 hours) was 4.87% and 6.78% and 6.83%, the “Growth inhibition over time” value ([4]; 22Rv1-SamR, IncuCyte confluency, samuraciclib at 1.35 µM) was “potently growth inhibited” and the “% Confluency” value ([5]; 80nM SY1365, CDK7D97N CL3, 0 hours) was 10.64% and 16.42% and 15.20%. The “% Confluency” value ([5]; 80nM SY1365, CDK7D97N CL3, 6 hours) was 12.17% and 18.19% and 16.81%, the “% Confluency” value ([5]; 80nM SY1365, CDK7D97N CL3, 12 hours) was 12.25% and 16.05% and 14.62% and the “% Confluency” value ([5]; 80nM SY1365, CDK7D97N CL3, 18 hours) was 11.21% and 14.01% and 12.61%. The “% Confluency” value ([5]; 80nM SY1365, CDK7D97N CL3, 24 hours) was 9.91% and 12.68% and 11.43%, the “% Confluency” value ([5]; 80nM SY1365, CDK7D97N CL3, 30 hours) was 9.03% and 11.88% and 10.71% and the “% Confluency” value ([5]; 80nM SY1365, CDK7D97N CL3, 36 hours) was 8.55% and 11.34% and 10.26%. For the same compound, the “% Confluency” value ([5]; 80nM SY1365, CDK7D97N CL3, 42 hours) was 8.35% and 11.02% and 9.94%, the “% Confluency” value ([5]; 80nM SY1365, CDK7D97N CL3, 48 hours) was 8.30% and 10.78% and 9.70% and the “% Confluency” value ([5]; 80nM SY1365, CDK7D97N CL3, 54 hours) was 8.19% and 10.49% and 9.48%. For the same compound, the “% Confluency” value ([5]; 80nM SY1365, CDK7D97N CL3, 60 hours) was 8.11% and 10.33% and 9.30%, the “% Confluency” value ([5]; 80nM SY1365, CDK7D97N CL3, 66 hours) was 8.06% and 10.08% and 9.17% and the “% Confluency” value ([5]; 80nM SY1365, CDK7D97N CL3, 72 hours) was 8.00% and 9.91% and 9.02%. The “% Confluency” value ([5]; 80nM SY1365, CDK7D97N CL3, 78 hours) was 7.89% and 9.76% and 8.94%, the “% Confluency” value ([5]; 80nM SY1365, CDK7D97N CL3, 84 hours) was 7.83% and 9.66% and 8.79% and the “% Confluency” value ([5]; 80nM SY1365, CDK7D97N CL3, 90 hours) was 7.73% and 9.55% and 8.72%. The “% Confluency” value ([5]; 80nM SY1365, CDK7D97N CL3, 96 hours) was 7.64% and 9.51% and 8.65%, the “% Confluency” value ([5]; 80nM SY1365, CDK7D97N CL3, 114 hours) was 7.42% and 9.25% and 8.52% and the “% Confluency” value ([5]; 80nM SY1365, CDK7D97N CL3, 120 hours) was 7.37% and 9.31% and 8.48%. The “% Confluency” value ([5]; 80nM SY1365, CDK7D97N CL3, 126 hours) was 7.26% and 9.19% and 8.45%, the “% Confluency” value ([5]; 80nM SY1365, CDK7D97N CL3, 132 hours) was 7.22% and 9.15% and 8.43% and the “% Confluency” value ([5]; 80nM SY1365, CDK7D97N CL3, 138 hours) was 7.16% and 9.12% and 8.33%. For the same compound, the “% Confluency” value ([5]; 80nM SY1365, CDK7D97N CL3, 144 hours) was 7.11% and 8.98% and 8.32% and the “Growth inhibition over time” value ([5]; 22Rv1 homozygous CDK7-D97N clone, IncuCyte confluency, samuraciclib at 1.35 µM) was “potently growth inhibited”.
